These results are taken from article PMC11858854, “In Vitro and In Vivo Assessment of Pharmacokinetic Profile of Peramivir in the Context of Inhalation Therapy” (Pharmaceuticals, 2025).

Holding throughout (format): in vitro ADME
One data set addresses T1, human OCT1 (Homo sapiens, UniProt O15245).
T1 construct: host or cells: HEK293 (HEK293-OCT1); control HEK293-MOCK
T1 sequence (O15245 1-554): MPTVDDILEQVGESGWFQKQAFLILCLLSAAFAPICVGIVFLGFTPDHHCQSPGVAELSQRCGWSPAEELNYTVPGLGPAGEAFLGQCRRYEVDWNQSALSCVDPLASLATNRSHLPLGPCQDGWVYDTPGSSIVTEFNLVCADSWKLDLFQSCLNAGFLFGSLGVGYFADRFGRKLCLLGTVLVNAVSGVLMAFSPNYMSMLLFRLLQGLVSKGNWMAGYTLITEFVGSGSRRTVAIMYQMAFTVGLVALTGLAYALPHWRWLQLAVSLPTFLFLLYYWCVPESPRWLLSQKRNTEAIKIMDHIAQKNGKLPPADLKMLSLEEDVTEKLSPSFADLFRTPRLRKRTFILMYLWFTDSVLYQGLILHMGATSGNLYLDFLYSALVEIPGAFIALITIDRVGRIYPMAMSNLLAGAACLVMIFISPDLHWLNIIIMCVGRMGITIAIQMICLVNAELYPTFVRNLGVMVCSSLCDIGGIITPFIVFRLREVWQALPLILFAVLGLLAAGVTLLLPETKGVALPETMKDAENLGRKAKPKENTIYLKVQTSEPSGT
As to the kind of experiment: Uptake study, HEK293 cells overexpressing OCT1. Here is the method: (§1) All cells (HEK293-MOCK, HEK293-OCT1, HEK293-OCT2, MDCK-MOCK, MDCK-OCTN1, and MDCK-OCTN2) were cultured in DMEM medium supplemented with 10% FBS and PS (100 U/mL), at 37 °C in a humidified 5% CO2 incubator. Cells were seeded on 24-well plates at a density of 1 × 10^4 cells/well. For the uptake assay, the DMEM media were removed, and the cells were washed with pre-warmed Hank’s buffer three times (1 mL/well). Subsequent addition of inhibitor-free/inhibitor-containing buffer was pre-incubated for 30 min at 37 °C prior to the initiation of the uptake experiment. After the pre-incubating buffer was removed, 200 μL of pre-warmed test drugs solution (Hank’s buffer containing 10 µM and 50 µM peramivir) or a mixture of test drugs and inhibitor was added into each well, and the plates were incubated at 37 °C for 5 min. At the end of incubation, cells were washed and lysed as described above. The cell lysate was collected and stored at −40 °C for LC-MS/MS analysis and protein measurement. The negative control (MOCK cells) and positive control were included simultaneously.

For the next data set, the target named is T2, human OCT2 (Homo sapiens, UniProt O15244).
T2 construct: host or cells: HEK293 (HEK293-OCT2); control HEK293-MOCK
T2 sequence (O15244 1-555): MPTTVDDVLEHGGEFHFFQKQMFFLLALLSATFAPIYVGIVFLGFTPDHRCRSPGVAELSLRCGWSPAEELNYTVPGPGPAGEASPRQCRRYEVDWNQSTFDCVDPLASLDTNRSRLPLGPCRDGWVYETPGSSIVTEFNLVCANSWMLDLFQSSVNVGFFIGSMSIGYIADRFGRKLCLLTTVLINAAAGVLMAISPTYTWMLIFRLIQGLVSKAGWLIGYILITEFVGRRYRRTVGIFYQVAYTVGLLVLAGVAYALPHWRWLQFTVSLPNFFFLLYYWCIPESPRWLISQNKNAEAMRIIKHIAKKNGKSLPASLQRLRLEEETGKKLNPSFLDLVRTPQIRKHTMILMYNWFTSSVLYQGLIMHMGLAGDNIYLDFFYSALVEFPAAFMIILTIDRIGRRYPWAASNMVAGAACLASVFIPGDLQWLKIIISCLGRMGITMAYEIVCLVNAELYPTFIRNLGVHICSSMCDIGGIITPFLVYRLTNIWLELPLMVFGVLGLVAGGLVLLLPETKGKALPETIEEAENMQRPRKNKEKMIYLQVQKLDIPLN
As to the kind of experiment: Uptake study, HEK293 cells overexpressing OCT2. As to the method:
as §1

The target in a further data set is T3, human OCTN2 (Homo sapiens, UniProt O76082).
T3 construct: Huidi Jiang, Zhejiang University; host or cells: MDCK (MDCK-OCTN2); control MDCK-MOCK
T3 sequence (O76082 1-557): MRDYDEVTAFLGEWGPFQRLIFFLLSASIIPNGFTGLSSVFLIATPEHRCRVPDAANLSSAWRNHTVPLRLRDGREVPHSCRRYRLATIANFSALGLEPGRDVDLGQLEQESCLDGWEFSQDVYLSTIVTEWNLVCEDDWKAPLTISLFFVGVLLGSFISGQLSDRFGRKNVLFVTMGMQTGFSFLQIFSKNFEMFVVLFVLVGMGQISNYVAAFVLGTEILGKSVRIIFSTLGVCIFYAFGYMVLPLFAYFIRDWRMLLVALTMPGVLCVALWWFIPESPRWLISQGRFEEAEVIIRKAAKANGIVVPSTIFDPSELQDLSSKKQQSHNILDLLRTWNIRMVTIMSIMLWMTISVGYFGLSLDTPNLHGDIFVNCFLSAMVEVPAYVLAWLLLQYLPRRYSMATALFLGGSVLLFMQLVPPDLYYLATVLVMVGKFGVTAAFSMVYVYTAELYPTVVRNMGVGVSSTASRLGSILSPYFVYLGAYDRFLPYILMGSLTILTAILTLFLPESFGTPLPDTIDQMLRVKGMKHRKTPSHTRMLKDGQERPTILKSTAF
Kind of data set: Uptake study, MDCK cells overexpressing OCTN2. Here is the method: as §1

On to `CCC(CC)[C@H](NC(C)=O)[C@@H]1[C@H](O)[C@@H](C(=O)O)C[C@H]1N=C(N)N` [Peramivir], for which the OCT1 substrate status result on human OCT1 (HEK293-OCT1) is on record as “does not act as a substrate”. Also, the “transporter-mediated uptake ratio (UR)” value on human OCT1 (HEK293-OCT1, 50 μM) is reported as below 1; on human OCT2 (HEK293-OCT2, 50 μM) it was below 1. Further, the “inhibition ratio (IR)” value on human OCT1 (HEK293-OCT1, 50 μM, inhibitor verapamil (200 μM)) was “exceeding 98.51%”; on human OCT2 (HEK293-OCT2, 50 μM, inhibitor verapamil (200 μM)), “exceeding 98.51%”. Further, the OCT2 substrate status entry at human OCT2 (HEK293-OCT2) is given as “does not act as a substrate”. Besides, the OCTN2 substrate status entry at human OCTN2 (MDCK-OCTN2) is listed as “confirming peramivir as a substrate for the OCTN2 transporter”. For the same compound, the “transporter-mediated uptake ratio (UR value)” value on human OCTN2 (MDCK-OCTN2, 50 μM) was found to be 41.62. Moreover, at human OCTN2 (MDCK-OCTN2, 50 μM, inhibitor L-carnitine (200 μM)), the “inhibition ratio (IR value)” value is 65.69%.
